Molecular target: T1, DNA-3-methyladenine glycosylase 1 (Escherichia coli (strain K12), UniProt P05100)
T1 sequence (P05100 whole entry): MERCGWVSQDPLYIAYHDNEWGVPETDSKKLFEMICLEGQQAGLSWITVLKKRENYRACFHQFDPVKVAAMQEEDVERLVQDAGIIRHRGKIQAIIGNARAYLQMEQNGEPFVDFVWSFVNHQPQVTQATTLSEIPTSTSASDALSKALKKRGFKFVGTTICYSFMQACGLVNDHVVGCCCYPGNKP
Experiment: Inhibition of Escherichia coli DNA-3-methyladenine glycosylase 1

IC50 | Compound
1500 µM | Cn1cnc(N)c2ncnc1-2 [3-METHYLADENINE]
2.3 µM | CCCCn1cnc(N)c2ncnc1-2 [3-BUTYLADENINE]
50 µM | CCn1cnc(N)c2ncnc1-2 [3-ETHYLADENINE]
5 µM | CCCn1cnc(N)c2ncnc1-2 [3-PROPYLADENINE]
0.4 µM | Nc1ncn(Cc2ccccc2)c2ncnc1-2 [3-BENZYLADENINE]

Source: ChEMBL document CHEMBL3046707, “Cheminformatic designing of de novo inhibitors to 3-methyl adenine DNA glycosylase I (LiTagA) from Leptospira interrogans serovar lai strain 56601” (Med Chem Res, 2013)
